# Reference: patent publication US8404650B2, “Methods of treating cancer with doxazolidine and prodrugs thereof” (priority 2005, dated 2013)
# Read-outs that look alike come from different tables or passages of the source.
# Key:
# [1] = tested on: H9c2(2-1) rat cardiomyocytes; experiment: Growth inhibition of rat cardiomyocytes as a measure of cardiotoxicity; type: cell-based; settings: for Growth inhibition IC50, H9c2(2-1), 24 h: 24 h drug treatment, crystal violet
# Experimental: Biological activity of simple Doxazolidine carbamates. Since the prodrug carbamates were designed to be activated by carboxylesterases CES1 (hCE1) and/or CES2 (hiCE), cell lines of interest were measured for expression of the respective mRNAs using reverse transcription (RT) followed by PCR (polymerase chain reaction). Cancer cell lines investigated included SHP-77 resistant small cell lung, DU-145 prostate, MCF-7 sensitive breast, MCF-7/Adr resistant breast, SK-HEP-1 liver, and Hep G2 liver cells. As a measure of possible cardiotoxicity, H9c2(2-1) rat cardiomyocytes were also investigated. Cardiotoxicity is relevant because the ultimate product of metabolism and subsequent hydrolysis of these carbamates is doxorubicin, which is cardiotoxic. […] Additionally, the rat cardiomyocytes, H9c2(2-1), also express more CES2 than CES1.
# Cell growth inhibition experiments initially focused on MCF-7, MCF-7/Adr, SK-HEP-1, and Hep G2 cancer cells as well as rat cardiomyocytes as a measure of cardiotoxicity and Vero cells (green monkey kidney cells) as an additional measure of normal cell toxicity. The butyl and pentyl carbamates inhibited the growth of MCF-7, MCF-7/Adr, and SK-HEP-1 cell lines with a 24 h drug treatment period with some selectivity for cancer cells over cardiomyocytes relative to growth inhibition by Dox as shown in Table 2. […] The relative inactivity of the ethyl carbamate may indicate that a substantial lipophilic interaction is required at the active site of the carboxylesterases to hold the Doxaz substrate.
# Biological activity of Doxazolidine carbamates with self-eliminating spacer. […] SHP-77 small cell lung cancer cells were also of interest because they express modest amounts of both enzymes. Inhibition of the growth of cardiomyocytes was used as a measure of cardiotoxicity, and inhibition of the growth of Vero cells, green monkey kidney cells, was again used as another measure of toxicity to normal cells. They also show more activity against the cancer cells that express higher levels of CES1. Of particular note is the higher activity against Hep G2 cells than against SK-HEP-1 cells. […] The low toxicity of pentyl PABC-Doxaz to cardiomyocytes relative to the toxicity of Dox is encouraging and consistent with the low level of expression of CES1 in cardiomyocytes.
# A more thorough characterization of the growth inhibition of a variety of cancer cells as well as rat cardiomyocytes by Formula IV (aFK-PABC-Doxaz) was evaluated in comparison with inhibition of growth by Doxaz, Dox and aFK-PABC-Dox. Cells were treated with drug for 3 h and colony growth was measured at 3 to 5 days when cells reached about 80% confluence. The cancer cells included one prostate cancer cell line (DU-145), three related breast cancer cell lines (MCF-7, MCF-7/Adr, and MCF-7 uPA), and one pancreatic cancer cell line (Mia PaCa-2). The breast cancer cell lines represent the multi-drug resistant (MDR) phenotype with MCF-7/Adr cells and a cell line that is transfected with the gene for urokinase plasminogen activator (uPA), the primary enzyme responsible for cleavage of plasminogen to plasmin. Rat cardiomyocytes served as a model for comparison of drug cardiotoxicity. Growth inhibition was also measured with added plasmin. aFK-PABC-Doxaz inhibited the growth of most of the cancer cells 0.5 log or more better than did aFK-PABA-Dox. Although not as dramatic, this differential response paralleled the differential response between Doxaz and Dox which is approximately two logs except for the MDR expressing, MCF-7/Adr cells which show more than three logs differential response. […] Addition of 0.01 unit/mL of plasmin has no effect on the activity of Dox but increases the activity of both aFK-PABC-Doxaz and aFK-PABC-Dox, in some cases by more than a log. Addition of 0.01 unit/mL plasminogen increases the activity of aFK-PABC-Doxaz on average by 0.3 log. […]
# [2] = tested on: MCF-7; experiment: Growth inhibition of MCF-7 sensitive breast cancer cells (colony formation, crystal violet); type: cell-based, human
# Experimental: (§1) In vitro Activity. […] This cell suspension was dispensed in 200 μL aliquots (1000 cells/well) into the inside wells of 96-well tissue culture plates. Outside wells contained 200 μL of media. […] The medium was replaced with 90 μL of growth medium prior to addition of the drug. Doxaz was dissolved in DMSO at concentrations ranging from 50 μM to 1 mM. […] Serial dilutions (1:3 and 1:10) were made in sterile DMSO to yield seven solutions of decreasing drug concentration at 100× the respective working concentrations. […] Additionally, two lanes were treated with 10 μL of growth medium containing 10% sterile DMSO and one lane was treated with 90 μL of 1.5 M Tris HCl. […]
# (§2) Cell growth inhibition experiments initially focused on MCF-7, MCF-7/Adr, SK-HEP-1, and Hep G2 cancer cells as well as rat cardiomyocytes as a measure of cardiotoxicity and Vero cells (green monkey kidney cells) as an additional measure of normal cell toxicity.
# (§3) Activity of plasmin-activated prodrugs.
# (§4) A more thorough characterization of the growth inhibition of a variety of cancer cells as well as rat cardiomyocytes by Formula IV (aFK-PABC-Doxaz) was evaluated in comparison with inhibition of growth by Doxaz, Dox and aFK-PABC-Dox. Cells were treated with drug for 3 h and colony growth was measured at 3 to 5 days when cells reached about 80% confluence. […] The breast cancer cell lines represent the multi-drug resistant (MDR) phenotype with MCF-7/Adr cells and a cell line that is transfected with the gene for urokinase plasminogen activator (uPA), the primary enzyme responsible for cleavage of plasminogen to plasmin. Rat cardiomyocytes served as a model for comparison of drug cardiotoxicity.
# [3] = tested on: MCF-7/Adr; experiment: Growth inhibition of multidrug resistant MCF-7/Adr breast cancer cells (crystal violet); type: cell-based; settings: for Growth inhibition IC50, MCF-7/Adr, 24 h: 24 h drug treatment
# Experimental: as §1, §2, §3, §4
# [4] = tested on: SHP-77; experiment: Growth inhibition of SHP-77 small cell lung cancer cells; type: cell-based; settings: 24 h drug treatment; crystal violet
# Text: (§5) SHP-77 small cell lung cancer cells were also of interest because they express modest amounts of both enzymes. Inhibition of the growth of cardiomyocytes was used as a measure of cardiotoxicity, and inhibition of the growth of Vero cells, green monkey kidney cells, was again used as another measure of toxicity to normal cells.
# [5] = tested on: Vero cells; experiment: Growth inhibition of Vero cells as a measure of normal cell toxicity (MTT); type: cell-based, green monkey; settings: 24 h drug treatment
# Text: as §2, §5
# [6] = tested on: DU-145; experiment: Growth inhibition of DU-145 prostate cancer cells; type: cell-based; settings: for Cell growth inhibition IC50, DU-145: 24 h drug treatment, crystal violet
# Experimental: as §1, §5
# as §4, with “Cells were treated with drug for 3 h and colony growth was measured at 3 to 5 days when cells reached about 80% confluence.” left out
# [7] = tested on: SK-HEP-1; experiment: Growth inhibition of SK-HEP-1 liver cancer cells; type: cell-based, human; settings: crystal violet; for Growth inhibition IC50, SK-HEP-1, 24 h: 24 h drug treatment
# Text: (§6) Cell growth inhibition experiments initially focused on MCF-7, MCF-7/Adr, SK-HEP-1, and Hep G2 cancer cells as well as rat cardiomyocytes as a measure of cardiotoxicity and Vero cells (green monkey kidney cells) as an additional measure of normal cell toxicity. […]
# [8] = tested on: Hep G2; experiment: Growth inhibition of Hep G2 liver cancer cells; type: cell-based, human; settings: crystal violet; for Growth inhibition IC50, Hep G2, 24 h: 24 h drug treatment
# Text: as §6
# [9] = tested on: cancer cells; settings: background statement; cited from earlier work
# [10] = tested on: MDA-MB-435; experiment: Growth inhibition of MDA-MB-435 breast cancer cells; type: cell-based; settings: 3 h drug treatment, growth at 5 days; read-out: IC50 MDA-MB-435
# Experimental: (§7) In vitro Activity. […] This cell suspension was dispensed in 200 μL aliquots (1000 cells/well) into the inside wells of 96-well tissue culture plates. Outside wells contained 200 μL of media. […] The medium was replaced with 90 μL of growth medium prior to addition of the drug. Doxaz was dissolved in DMSO at concentrations ranging from 50 μM to 1 mM. […] Serial dilutions (1:3 and 1:10) were made in sterile DMSO to yield seven solutions of decreasing drug concentration at 100× the respective working concentrations. […] Additionally, two lanes were treated with 10 μL of growth medium containing 10% sterile DMSO and one lane was treated with 90 μL of 1.5 M Tris HCl. The cells were incubated at 37° C. for 3 h, at which time the drug solutions were replaced with 200 μL of fresh growth medium.
# as §3
# [11] = target: human plasmin (Homo sapiens, UniProt P00747); experiment: Plasmin activation of prodrug and release of Doxaz (HPLC); type: biochemical; settings: 37° C.
# human plasmin, sequence (P00747 581-810 limits assumed): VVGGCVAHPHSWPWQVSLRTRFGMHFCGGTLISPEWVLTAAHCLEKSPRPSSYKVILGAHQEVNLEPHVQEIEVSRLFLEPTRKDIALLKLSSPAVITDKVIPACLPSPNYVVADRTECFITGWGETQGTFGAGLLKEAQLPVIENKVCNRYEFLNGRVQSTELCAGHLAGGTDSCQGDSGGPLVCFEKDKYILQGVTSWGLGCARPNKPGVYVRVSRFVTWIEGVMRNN
# human plasmin, sequence (P00747 97-580 partner limits assumed): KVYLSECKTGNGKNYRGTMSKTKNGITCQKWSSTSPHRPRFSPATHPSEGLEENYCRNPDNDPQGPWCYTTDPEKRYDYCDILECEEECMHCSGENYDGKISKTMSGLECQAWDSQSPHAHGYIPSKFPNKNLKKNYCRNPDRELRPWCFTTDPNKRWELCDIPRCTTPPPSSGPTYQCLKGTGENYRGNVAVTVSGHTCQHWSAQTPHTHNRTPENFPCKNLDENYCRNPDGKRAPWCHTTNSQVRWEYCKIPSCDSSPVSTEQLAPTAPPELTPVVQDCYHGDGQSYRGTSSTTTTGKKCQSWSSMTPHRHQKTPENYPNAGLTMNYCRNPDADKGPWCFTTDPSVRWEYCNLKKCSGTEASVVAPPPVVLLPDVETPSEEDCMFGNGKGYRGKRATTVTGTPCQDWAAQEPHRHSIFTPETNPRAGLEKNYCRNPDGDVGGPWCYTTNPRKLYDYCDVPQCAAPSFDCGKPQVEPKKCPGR
# Experimental: Both Formulas IV and V were incubated with 15 μg/ml human plasmin and monitored by HPLC at 37° C. Just 4 min after the addition of plasmin, 20 percent of compound 10 was converted to Doxaz and roughly 50% of that Doxaz had hydrolyzed to Doxorubicin. Within 23 minutes, nearly all of the prodrug was converted to Doxaz and subsequently hydrolyzed to Doxorubicin.
# [12] = Water solubility; type: physicochemical; settings: as di-cation
# [13] = tested on: cancer cells; experiment: Cancer cell growth inhibition, statements over several or unnamed cell lines; type: cell-based; settings: read-out: Cancer cell growth inhibition IC50 in the presence of plasmin
# Experimental: as §7, §4
# [14] = 24 h drug treatment, crystal violet
# [15] = 3 h drug treatment, crystal violet
# [16] = Homo sapiens, NCI/ADR-RES, read-out: IC50 MCF-7/Adr
SMILES,"Growth inhibition IC50, H9c2(2-1), 24 h [1]","Growth inhibition IC50, MCF-7, 24 h [2, 14]","Growth inhibition IC50, MCF-7/Adr, 24 h ([3]; crystal violet)","Cell growth inhibition IC50, SHP-77 [4]","Growth inhibition IC50, Vero, 24 h [5]","Cell growth inhibition IC50, DU-145 [6]","Growth inhibition IC50, SK-HEP-1, 24 h [7]","Growth inhibition IC50, Hep G2, 24 h [8]","IC50 [3, 16] [nM]",also measured
CCCCOC(=O)Nc1ccc(COC(=O)N2COC3C(C)OC(OC4CC(O)(C(=O)CO)Cc5c(O)c6c(c(O)c54)C(=O)c4c(OC)cccc4C6=O)CC32)cc1 (stereo not shown) [Butyl PABC-Doxaz],−7.2 ± 0.2 log of the molar concentration,−4.1 ± 0.3 log of the molar concentration,−5.9 ± 0.06 log of the molar concentration,−7.1 ± 0.1 log of molar concentrations,−6.1 ± 0.08 log of the molar concentration,−6.3 ± 0.3 log of molar concentrations,−5.8 ± 0.04 log of the molar concentration,−7.7 ± 0.03 log of the molar concentration,–,–
"COc1cccc2c1C(=O)c1c(O)c3c(c(O)c1C2=O)C[C@@](O)(C(=O)CO)C[C@@H]3O[C@H]1C[C@H](NCNC(=O)c2ccccc2O)[C@H](O)[C@H](C)O1 [DoxSF, doxsaliform, reference compound]",–,–,–,–,–,–,–,–,–,"IC50 ([2]; 3 h drug treatment, growth at 5 days, read-out: IC50 MCF-7): 70 to 80 nM; Less active than DoxF in cancer cell growth inhibition [9]: 50 fold; IC50 ([3]; 3 h drug treatment, growth at 5 days, read-out: IC50 MCF-7/Adr): 800 to 2000 nM; IC50 [10]: 50 ± 9 nM"
CCCCOC(=O)N1COC2C(C)OC(OC3CC(O)(C(=O)CO)Cc4c(O)c5c(c(O)c43)C(=O)c3c(OC)cccc3C5=O)CC21 (stereo not shown) [Doxaz Butyl Carbamate],−5.8 ± 0.2 log of the molar concentration,−6.1 ± 0.04 log of the molar concentration,−6.2 ± 0.3 log of the molar concentration,−6.6 ± 0.3 log of molar concentrations,−6.3 ± 0.1 log of the molar concentration,−6.4 ± 0.02 log of molar concentrations,−6.4 ± 0.2 log of the molar concentration,−6.7 ± 0.3 log of the molar concentration,–,–
CCOC(=O)N1COC2C(C)OC(OC3CC(O)(C(=O)CO)Cc4c(O)c5c(c(O)c43)C(=O)c3c(OC)cccc3C5=O)CC21 (stereo not shown) [Doxaz Ethyl Carbamate],–,–,>−5 log of the molar concentration,–,–,–,>−6 log of the molar concentration,>−6 log of the molar concentration,–,"Growth inhibition IC50, H9c2(2-1), 3 h ([1]; 3 h drug treatment, MTT): −5.8 ± 0.2 log of the molar concentration; Growth inhibition IC50, MCF-7, 3 h [2, 15]: >−6 log of the molar concentration; IC50 ([2]; 24 h drug treatment, crystal violet, read-out: Growth inhibition IC50, MCF-7, 24 h): > 1000 nM; Growth inhibition IC50, MCF-7/Adr, 3 h [3, 15]: −5.3 ± 0.04 log of the molar concentration; Growth inhibition IC50, SK-HEP-1, 3 h ([7]; 3 h drug treatment): >−6 log of the molar concentration; Growth inhibition IC50, Hep G2, 3 h ([8]; 3 h drug treatment): >−6 log of the molar concentration"
"COc1cccc2c1C(=O)c1c(O)c3c(c(O)c1C2=O)C[C@@](O)(C(=O)CO)C[C@@H]3O[C@H]1C[C@H](N)[C@@H](O)[C@H](C)O1 [Epi, Epidoxorubicin, reference compound]",–,–,–,–,–,–,–,–,> 10000,"IC50 ([2]; Homo sapiens, MCF7, read-out: IC50 MCF-7, 3 h drug treatment, growth at 5 days): 200 nM; IC50 ([6]; Homo sapiens, DU-145, read-out: IC50 DU-145): 380 ± 52 nM"
COc1cccc2c1C(=O)c1c(O)c3c(c(O)c1C2=O)C[C@@](O)(C(=O)CO)C[C@@H]3O[C@H]1C[C@H]2[C@@H](OCN2C(=O)OCc2ccc(NC(=O)OCc3ccc(NC(=O)[C@H](CCCCN)NC(=O)[C@H](Cc4ccccc4)NC(=O)[C@@H](C)N)cc3)cc2)[C@H](C)O1 [Formula V],–,–,–,–,–,–,–,–,100,"Time until nearly all of the prodrug was converted to Doxaz ([11]; 15 μg/ml human plasmin): ≤ 23 min; Prodrug converted to Doxaz ([11]; 4 min after addition of 15 μg/ml human plasmin): 20%; IC50 ([2]; Homo sapiens, MCF7, 3 h, read-out: IC50 MCF-7 + plasmin): 9 nM; IC50 ([2]; Homo sapiens, MCF7, read-out: IC50 MCF-7): 60 nM; IC50 ([3]; Homo sapiens, NCI/ADR-RES, 3 h, read-out: IC50 MCF-7/Adr + plasmin): 10 nM; Water solubility [12]: excellent water solubility; IC50 [13]: 5 nM"
